These results are taken from ChEMBL document CHEMBL1146394, “New antihepatotoxic cerebroside from Lycium chinense fruits” (1997).

The test system of experiment [1] is Hepatocyte. Put plainly: Antihepatotoxic activity against CCl4-induced cytotoxicity in rat hepatocytes assessed as blockade of glutamic pyruvic transaminase release at 25 uM by Reitman-Frankel method relative to control. Type of experiment: functional.
In experiment [2] the test system is Hepatocyte. Put plainly: Antihepatotoxic activity against CCl4-induced cytotoxicity in rat hepatocytes assessed as blockade of sorbitol dehydrogenase release at 25 uM by modified Gerlach method relative to control. Type of experiment: functional.

With `CCCCCCCCC/C=C\CC/C=C/[C@@H](O)[C@H](CO[C@@H]1O[C@H](CO)[C@@H](O)[C@H](O)[C@H]1O)NC(=O)CCCCCCCCCCCCCCC`, the Activity turned out to be 95.6% with Hepatocyte [1] and 80.2% in the experiment on Hepatocyte [2].

Turning to `COc1cc(C2Oc3cc([C@H]4Oc5cc(O)cc(O)c5C(=O)[C@@H]4O)ccc3OC2CO)ccc1O` (stereo partly specified) [SILIBININ], the figures for the Activity in the experiment on Hepatocyte [1] and in the experiment with Hepatocyte [2] were 76% and 58.9%, respectively.

For `CCCCCCCCC/C=C\CC/C=C/[C@@H](O)[C@H](CO[C@@H]1O[C@H](CO)[C@@H](O)[C@H](O)[C@H]1O)NC(=O)C(O)CCCCCCCCCCCCCC` (stereo partly specified), the Activity in the experiment with Hepatocyte [1] is listed as 86.4%; in the experiment with Hepatocyte [2], 69.5%.
